ChEMBL document CHEMBL5532679, “Discovery and Characterization of RGH-122, a Potent, Selective, and Orally Bioavailable V1a Receptor Antagonist” (J Med Chem, 2024)

Test system: not listed separately
Test: in vitro
Conditions: Wistar, rat, microsomes

Structure (SMILES) | microsomal CLint at 1 µM
N[C@H]1Cc2cc(Cl)ccc2-n2c(nnc2[C@H]2CC[C@H](Oc3ccccn3)CC2)C1 | 36 µL/min/mg
CC(=O)N[C@@H]1Cc2cc(Cl)ccc2-n2c(nnc2[C@H]2CC[C@H](Oc3ccccn3)CC2)C1 | 1 µL/min/mg
CCN[C@@H]1Cc2cc(Cl)ccc2-n2c(nnc2[C@H]2CC[C@H](Oc3ccccn3)CC2)C1 | 15 µL/min/mg
O=C(N[C@@H]1Cc2cc(Cl)ccc2-n2c(nnc2[C@H]2CC[C@H](Oc3ccccn3)CC2)C1)C1CC1 | 1 µL/min/mg
FC1(F)CCC(NC2Cc3cc(Cl)ccc3-n3c(nnc3[C@H]3CC[C@H](Oc4ccccn4)CC3)C2)CC1 (stereo partly drawn) | 26 µL/min/mg
CN(C)CCC(=O)N[C@@H]1Cc2cc(Cl)ccc2-n2c(nnc2[C@H]2CC[C@H](Oc3ccccn3)CC2)C1 | 29 µL/min/mg
Clc1ccc2c(c1)CC(NC1COC1)Cc1nnc([C@H]3CC[C@H](Oc4ccccn4)CC3)n1-2 (stereo partly drawn) | 17 µL/min/mg
CNC1Cc2cc(Cl)ccc2-n2c(nnc2[C@H]2CC[C@H](Oc3ccccn3)CC2)C1 (stereo partly drawn) | 19 µL/min/mg
CN(C)C1Cc2cc(Cl)ccc2-n2c(nnc2[C@H]2CC[C@H](Oc3ccccn3)CC2)C1 (stereo partly drawn) | 36 µL/min/mg
Clc1ccc2c(c1)CC(NC1CCOCC1)Cc1nnc([C@H]3CC[C@H](Oc4ccccn4)CC3)n1-2 (stereo partly drawn) | 9 µL/min/mg
CN(C)CC(=O)NC1Cc2cc(Cl)ccc2-n2c(nnc2[C@H]2CC[C@H](Oc3ccccn3)CC2)C1 (mixture of isomers) | 6 µL/min/mg
NC1Cc2cc(Cl)ccc2-n2c(nnc2[C@H]2CC[C@H](Oc3ccccn3)CC2)C1 (mixture of isomers) | 11 µL/min/mg

Test system: not listed separately
Test: in vitro
Conditions: human, microsomes

Structure (SMILES) | microsomal CLint at 1 µM
N[C@H]1Cc2cc(Cl)ccc2-n2c(nnc2[C@H]2CC[C@H](Oc3ccccn3)CC2)C1 | 4 µL/min/mg
CC(=O)N[C@@H]1Cc2cc(Cl)ccc2-n2c(nnc2[C@H]2CC[C@H](Oc3ccccn3)CC2)C1 | 0.2 µL/min/mg
CCN[C@@H]1Cc2cc(Cl)ccc2-n2c(nnc2[C@H]2CC[C@H](Oc3ccccn3)CC2)C1 | 21 µL/min/mg
O=C(N[C@@H]1Cc2cc(Cl)ccc2-n2c(nnc2[C@H]2CC[C@H](Oc3ccccn3)CC2)C1)C1CC1 | 1 µL/min/mg
FC1(F)CCC(NC2Cc3cc(Cl)ccc3-n3c(nnc3[C@H]3CC[C@H](Oc4ccccn4)CC3)C2)CC1 (stereo partly drawn) | 26 µL/min/mg
CN(C)CCC(=O)N[C@@H]1Cc2cc(Cl)ccc2-n2c(nnc2[C@H]2CC[C@H](Oc3ccccn3)CC2)C1 | 15 µL/min/mg
Clc1ccc2c(c1)CC(NC1COC1)Cc1nnc([C@H]3CC[C@H](Oc4ccccn4)CC3)n1-2 (stereo partly drawn) | 16 µL/min/mg
CNC1Cc2cc(Cl)ccc2-n2c(nnc2[C@H]2CC[C@H](Oc3ccccn3)CC2)C1 (stereo partly drawn) | 12 µL/min/mg
CN(C)C1Cc2cc(Cl)ccc2-n2c(nnc2[C@H]2CC[C@H](Oc3ccccn3)CC2)C1 (stereo partly drawn) | 34 µL/min/mg
Clc1ccc2c(c1)CC(NC1CCOCC1)Cc1nnc([C@H]3CC[C@H](Oc4ccccn4)CC3)n1-2 (stereo partly drawn) | 24 µL/min/mg
CN(C)CC(=O)NC1Cc2cc(Cl)ccc2-n2c(nnc2[C@H]2CC[C@H](Oc3ccccn3)CC2)C1 (mixture of isomers) | 0.2 µL/min/mg
NC1Cc2cc(Cl)ccc2-n2c(nnc2[C@H]2CC[C@H](Oc3ccccn3)CC2)C1 (mixture of isomers) | 2 µL/min/mg

Target: Vasopressin V1a receptor (Homo sapiens, UniProt P37288)
Sequence (P37288 whole entry): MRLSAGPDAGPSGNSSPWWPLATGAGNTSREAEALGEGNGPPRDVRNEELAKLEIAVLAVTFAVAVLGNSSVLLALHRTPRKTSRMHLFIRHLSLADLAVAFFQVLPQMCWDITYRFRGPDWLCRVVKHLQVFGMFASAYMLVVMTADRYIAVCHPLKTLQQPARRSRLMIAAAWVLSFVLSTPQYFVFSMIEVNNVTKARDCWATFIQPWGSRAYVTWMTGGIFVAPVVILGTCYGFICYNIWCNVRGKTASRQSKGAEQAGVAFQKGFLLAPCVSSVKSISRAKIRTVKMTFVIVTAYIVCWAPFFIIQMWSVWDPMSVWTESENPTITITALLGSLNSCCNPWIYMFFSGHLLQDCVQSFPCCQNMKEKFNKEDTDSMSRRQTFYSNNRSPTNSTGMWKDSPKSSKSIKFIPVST
Test: not given
Conditions: not given

Structure (SMILES) | Ki
CC(C)NC1Cc2ccccc2-n2c(nnc2[C@H]2CC[C@H](Oc3ccccn3)CC2)C1 (stereo partly drawn) | 0.0056 µM

Test system: not listed separately
Test: in vitro
Conditions: NMRI, mouse, microsomes

Structure (SMILES) | microsomal CLint at 1 µM
N[C@H]1Cc2cc(Cl)ccc2-n2c(nnc2[C@H]2CC[C@H](Oc3ccccn3)CC2)C1 | 11 µL/min/mg
CCN[C@@H]1Cc2cc(Cl)ccc2-n2c(nnc2[C@H]2CC[C@H](Oc3ccccn3)CC2)C1 | 16 µL/min/mg
FC1(F)CCC(NC2Cc3cc(Cl)ccc3-n3c(nnc3[C@H]3CC[C@H](Oc4ccccn4)CC3)C2)CC1 (stereo partly drawn) | 37 µL/min/mg
Clc1ccc2c(c1)CC(NC1COC1)Cc1nnc([C@H]3CC[C@H](Oc4ccccn4)CC3)n1-2 (stereo partly drawn) | 14 µL/min/mg
CNC1Cc2cc(Cl)ccc2-n2c(nnc2[C@H]2CC[C@H](Oc3ccccn3)CC2)C1 (stereo partly drawn) | 24 µL/min/mg
CN(C)C1Cc2cc(Cl)ccc2-n2c(nnc2[C@H]2CC[C@H](Oc3ccccn3)CC2)C1 (stereo partly drawn) | 37 µL/min/mg
Clc1ccc2c(c1)CC(NC1CCOCC1)Cc1nnc([C@H]3CC[C@H](Oc4ccccn4)CC3)n1-2 (stereo partly drawn) | 15 µL/min/mg
CN(C)CC(=O)NC1Cc2cc(Cl)ccc2-n2c(nnc2[C@H]2CC[C@H](Oc3ccccn3)CC2)C1 (mixture of isomers) | 2 µL/min/mg
NC1Cc2cc(Cl)ccc2-n2c(nnc2[C@H]2CC[C@H](Oc3ccccn3)CC2)C1 (mixture of isomers) | 14 µL/min/mg

Target: Voltage-gated inwardly rectifying potassium channel KCNH2 (Homo sapiens, UniProt Q12809)
Sequence (Q12809 whole entry): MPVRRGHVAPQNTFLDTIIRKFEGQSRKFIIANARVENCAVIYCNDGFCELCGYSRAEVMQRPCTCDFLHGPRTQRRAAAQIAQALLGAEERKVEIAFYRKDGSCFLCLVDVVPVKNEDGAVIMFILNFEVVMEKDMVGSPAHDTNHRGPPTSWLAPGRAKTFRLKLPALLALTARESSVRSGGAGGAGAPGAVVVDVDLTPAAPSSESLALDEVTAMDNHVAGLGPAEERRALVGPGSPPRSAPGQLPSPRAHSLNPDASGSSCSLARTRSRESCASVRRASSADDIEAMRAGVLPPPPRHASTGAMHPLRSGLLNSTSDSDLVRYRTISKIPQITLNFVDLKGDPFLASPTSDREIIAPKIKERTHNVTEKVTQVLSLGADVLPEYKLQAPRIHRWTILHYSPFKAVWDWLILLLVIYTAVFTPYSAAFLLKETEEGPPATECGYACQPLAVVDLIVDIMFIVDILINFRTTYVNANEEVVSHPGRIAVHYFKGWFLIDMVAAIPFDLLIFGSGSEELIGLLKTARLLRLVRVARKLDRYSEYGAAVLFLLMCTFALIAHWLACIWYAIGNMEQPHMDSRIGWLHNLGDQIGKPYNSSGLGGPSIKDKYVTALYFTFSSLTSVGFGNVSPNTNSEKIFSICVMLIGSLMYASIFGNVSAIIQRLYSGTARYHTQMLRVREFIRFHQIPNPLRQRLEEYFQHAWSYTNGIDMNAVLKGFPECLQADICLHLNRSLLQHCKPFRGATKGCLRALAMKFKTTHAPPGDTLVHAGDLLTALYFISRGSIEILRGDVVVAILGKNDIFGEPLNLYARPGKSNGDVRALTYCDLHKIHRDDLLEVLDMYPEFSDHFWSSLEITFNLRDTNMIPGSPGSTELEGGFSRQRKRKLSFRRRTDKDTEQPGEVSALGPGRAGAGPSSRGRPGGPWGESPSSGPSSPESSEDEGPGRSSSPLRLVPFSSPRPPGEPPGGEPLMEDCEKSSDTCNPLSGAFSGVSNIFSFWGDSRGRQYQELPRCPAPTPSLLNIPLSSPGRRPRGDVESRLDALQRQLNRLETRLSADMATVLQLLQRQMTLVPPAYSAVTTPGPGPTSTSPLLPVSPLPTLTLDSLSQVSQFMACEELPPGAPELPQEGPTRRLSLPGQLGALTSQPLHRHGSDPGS
Test: not given
Conditions: not given

Structure (SMILES) | IC50
FC[C@H]1Cc2cc(Cl)ccc2-n2c(nnc2[C@H]2CC[C@H](Oc3ccccn3)CC2)C1 | 13 µM
CC(C)N[C@H]1Cc2cc(Cl)ccc2-n2c(nnc2[C@H]2CC[C@H](Oc3ccccn3)CC2)C1 | 3.8 µM
CCN[C@@H]1Cc2cc(Cl)ccc2-n2c(nnc2[C@H]2CC[C@H](Oc3ccccn3)CC2)C1 | 3.5 µM
OC[C@@H]1Cc2cc(Cl)ccc2-n2c(nnc2[C@H]2CC[C@H](Oc3ccccn3)CC2)C1 | 19 µM
OC[C@H]1Cc2cc(Cl)ccc2-n2c(nnc2[C@H]2CC[C@H](Oc3ccccn3)CC2)C1 | 23 µM
OCC1Cc2cc(Cl)ccc2-n2c(nnc2[C@H]2CC[C@H](Oc3ccccn3)CC2)C1 (stereo partly drawn) | 21.4 µM
FC[C@@H]1Cc2cc(Cl)ccc2-n2c(nnc2[C@H]2CC[C@H](Oc3ccccn3)CC2)C1 | 12 µM
CC(C)N[C@@H]1Cc2cc(Cl)ccc2-n2c(nnc2[C@H]2CC[C@H](Oc3ccccn3)CC2)C1 | 4 µM
CC(C)NC1Cc2cc(Cl)ccc2-n2c(nnc2[C@H]2CC[C@H](Oc3ccccn3)CC2)C1 (mixture of isomers) | 3.7 µM

Test system: not listed separately
Test: in vitro
Conditions: CD-1, mouse, liver microsomes

Structure (SMILES) | microsomal CLint at 1 µM
CC(=O)N[C@@H]1Cc2cc(Cl)ccc2-n2c(nnc2[C@H]2CC[C@H](Oc3ccccn3)CC2)C1 | 4 µL/min/mg
O=C(N[C@@H]1Cc2cc(Cl)ccc2-n2c(nnc2[C@H]2CC[C@H](Oc3ccccn3)CC2)C1)C1CC1 | 22 µL/min/mg
CN(C)CCC(=O)N[C@@H]1Cc2cc(Cl)ccc2-n2c(nnc2[C@H]2CC[C@H](Oc3ccccn3)CC2)C1 | 96 µL/min/mg

Test system: not listed separately
Test: animal or person
Conditions: Mus musculus, NMRI, po, read-out: INH

Structure (SMILES) | inhibition in vivo at 3 mg/kg
CC(C)NC1Cc2cc(Br)ccc2-n2c(nnc2[C@H]2CC[C@H](Oc3ccccn3)CC2)C1 (stereo partly drawn) | 64%
CC(C)NC1Cc2ccccc2-n2c(nnc2[C@H]2CC[C@H](Oc3ccccn3)CC2)C1 (stereo partly drawn) | 18%
CC(C)NC1Cc2cc(C#N)ccc2-n2c(nnc2[C@H]2CC[C@H](Oc3ccccn3)CC2)C1 (stereo partly drawn) | 56%
CC(C)NC1Cc2cc(F)ccc2-n2c(nnc2[C@H]2CC[C@H](Oc3ccccn3)CC2)C1 (stereo partly drawn) | 58%

Test system: not listed separately
Test: Efflux ratio of apparent permeability across basolateral to apical side over apical to basolateral side in vinblastine treated human Caco-2 cells at 1 to 10 uM incubated for 15 to 60 hrs by HPLC analysis
Conditions: not given

Structure (SMILES) | efflux ratio at 10 µM
N[C@H]1Cc2cc(Cl)ccc2-n2c(nnc2[C@H]2CC[C@H](Oc3ccccn3)CC2)C1 | 44
CC(=O)N[C@@H]1Cc2cc(Cl)ccc2-n2c(nnc2[C@H]2CC[C@H](Oc3ccccn3)CC2)C1 | 14
CCN[C@@H]1Cc2cc(Cl)ccc2-n2c(nnc2[C@H]2CC[C@H](Oc3ccccn3)CC2)C1 | 1.4
O=C(N[C@@H]1Cc2cc(Cl)ccc2-n2c(nnc2[C@H]2CC[C@H](Oc3ccccn3)CC2)C1)C1CC1 | 14.6
Clc1ccc2c(c1)CC(NC1COC1)Cc1nnc([C@H]3CC[C@H](Oc4ccccn4)CC3)n1-2 (stereo partly drawn) | 4.4
CNC1Cc2cc(Cl)ccc2-n2c(nnc2[C@H]2CC[C@H](Oc3ccccn3)CC2)C1 (stereo partly drawn) | 1.8
CN(C)C1Cc2cc(Cl)ccc2-n2c(nnc2[C@H]2CC[C@H](Oc3ccccn3)CC2)C1 (stereo partly drawn) | 1.3
Clc1ccc2c(c1)CC(NC1CCOCC1)Cc1nnc([C@H]3CC[C@H](Oc4ccccn4)CC3)n1-2 (stereo partly drawn) | 1.1
NC1Cc2cc(Cl)ccc2-n2c(nnc2[C@H]2CC[C@H](Oc3ccccn3)CC2)C1 (mixture of isomers) | 29

Test system: not listed separately
Test: Apparent permeability of compound across apical to basal side in vinblastine treated human Caco-2 cells at 1 to 10 uM incubated for 15 to 60 mins by HPLC analysis
Conditions: not given

Structure (SMILES) | Papp A→B at 10 µM
N[C@H]1Cc2cc(Cl)ccc2-n2c(nnc2[C@H]2CC[C@H](Oc3ccccn3)CC2)C1 | 2.6 ×10⁻⁶ cm/s
CC(=O)N[C@@H]1Cc2cc(Cl)ccc2-n2c(nnc2[C@H]2CC[C@H](Oc3ccccn3)CC2)C1 | 2.7 ×10⁻⁶ cm/s
CCN[C@@H]1Cc2cc(Cl)ccc2-n2c(nnc2[C@H]2CC[C@H](Oc3ccccn3)CC2)C1 | 24 ×10⁻⁶ cm/s
O=C(N[C@@H]1Cc2cc(Cl)ccc2-n2c(nnc2[C@H]2CC[C@H](Oc3ccccn3)CC2)C1)C1CC1 | 4.3 ×10⁻⁶ cm/s
Clc1ccc2c(c1)CC(NC1COC1)Cc1nnc([C@H]3CC[C@H](Oc4ccccn4)CC3)n1-2 (stereo partly drawn) | 24 ×10⁻⁶ cm/s
CNC1Cc2cc(Cl)ccc2-n2c(nnc2[C@H]2CC[C@H](Oc3ccccn3)CC2)C1 (stereo partly drawn) | 40 ×10⁻⁶ cm/s
CN(C)C1Cc2cc(Cl)ccc2-n2c(nnc2[C@H]2CC[C@H](Oc3ccccn3)CC2)C1 (stereo partly drawn) | 23 ×10⁻⁶ cm/s
Clc1ccc2c(c1)CC(NC1CCOCC1)Cc1nnc([C@H]3CC[C@H](Oc4ccccn4)CC3)n1-2 (stereo partly drawn) | 41 ×10⁻⁶ cm/s
NC1Cc2cc(Cl)ccc2-n2c(nnc2[C@H]2CC[C@H](Oc3ccccn3)CC2)C1 (mixture of isomers) | 3 ×10⁻⁶ cm/s
